In paper PMC5443783, “Prostaglandin E2 glyceryl ester is an endogenous agonist of the nucleotide receptor P2Y6” (Scientific Reports, 2017):

What was measured:
Assay in all cases: PathHunter β-Arrestin orphan GPCR panel
Type in all cases: cell-based
Conditions in all cases: agonist mode, 0.001 µM
GPR27 = biological target: T1, GPR27 (Homo sapiens, UniProt Q9NS67)
T1 construct: purchased DiscoveRx (PathHunter β-Arrestin orphan GPCR panel)
Excerpt: (§1) For screening orphan GPCRs as possible targets for PGE2-G, the PathHunter® β-Arrestin assay (DiscoveRx Co., USA) was used. It monitors the activation of a GPCR by utilizing an enzyme fragment complementation assay with β-galactosidase as the functional reporter. Briefly, the enzyme is split into two complementary portions expressed as fusion proteins in the cell. The enzyme acceptor is fused to β2-arrestin, and the ProLink donor peptide is fused to the GPCR of interest. Upon GPCR stimulation, β2-arrestin is recruited to the receptor, bringing the two fragments of β-galactosidase together. This generates an active enzyme that can convert a chemiluminescent substrate, generating a signal detectable on a standard microplate reader (see manufacturer’s instructions). In total, 78 GPCRs, previously considered orphan and individually transfected into cells, were screened by DiscoveRx (Supplementary Table S1). The percentage activity given in the results is calculated using the following formula: % activity = 100% × (mean RLU of test sample - mean RLU of vehicle control)/mean RLU of vehicle control).

BAI2 = biological target: T2, BAI2 (Homo sapiens, UniProt O60241)
T2 construct: purchased DiscoveRx (PathHunter β-Arrestin orphan GPCR panel)
Excerpt: as §1

GPR141 = biological target: T3, GPR141 (Homo sapiens, UniProt Q7Z602)
T3 construct: purchased DiscoveRx (PathHunter β-Arrestin orphan GPCR panel)
T3 sequence (Q7Z602 whole entry): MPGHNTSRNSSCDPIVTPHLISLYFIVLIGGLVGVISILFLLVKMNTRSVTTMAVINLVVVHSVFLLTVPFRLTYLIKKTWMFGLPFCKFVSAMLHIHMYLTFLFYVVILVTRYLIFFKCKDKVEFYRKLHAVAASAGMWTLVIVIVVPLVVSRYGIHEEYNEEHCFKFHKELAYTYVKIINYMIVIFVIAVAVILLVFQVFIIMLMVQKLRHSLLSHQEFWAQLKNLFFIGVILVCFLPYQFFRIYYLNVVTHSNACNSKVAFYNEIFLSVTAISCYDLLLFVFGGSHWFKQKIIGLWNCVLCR
Excerpt: as §1

GPR30 = biological target: T4, GPR30 (Homo sapiens, UniProt Q99527)
T4 construct: purchased DiscoveRx (PathHunter β-Arrestin orphan GPCR panel)
Excerpt: as §1

CMKLR2 = biological target: T5, CMKLR2 (Homo sapiens, UniProt P46091)
T5 construct: purchased DiscoveRx (PathHunter β-Arrestin orphan GPCR panel)
Excerpt: as §1

GPR148 = biological target: T6, GPR148 (Homo sapiens, UniProt Q8TDV2)
T6 construct: purchased DiscoveRx (PathHunter β-Arrestin orphan GPCR panel)
Excerpt: as §1

GPR146 = biological target: T7, GPR146 (Homo sapiens, UniProt Q96CH1)
T7 construct: purchased DiscoveRx (PathHunter β-Arrestin orphan GPCR panel)
Excerpt: as §1

GPR26 = biological target: T8, GPR26 (Homo sapiens, UniProt Q8NDV2)
T8 construct: purchased DiscoveRx (PathHunter β-Arrestin orphan GPCR panel)
T8 sequence (Q8NDV2 whole entry): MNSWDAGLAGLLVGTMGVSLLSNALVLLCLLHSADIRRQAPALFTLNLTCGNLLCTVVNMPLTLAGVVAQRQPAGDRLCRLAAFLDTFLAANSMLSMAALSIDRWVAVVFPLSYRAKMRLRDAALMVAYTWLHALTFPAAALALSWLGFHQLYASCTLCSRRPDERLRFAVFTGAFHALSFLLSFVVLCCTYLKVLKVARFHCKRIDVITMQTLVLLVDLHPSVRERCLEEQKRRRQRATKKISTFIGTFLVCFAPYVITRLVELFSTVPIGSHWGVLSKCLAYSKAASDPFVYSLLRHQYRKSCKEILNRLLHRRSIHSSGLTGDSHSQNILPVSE
Excerpt: as §1

GPR161 = biological target: T9, GPR161 (Homo sapiens, UniProt Q8N6U8)
T9 construct: purchased DiscoveRx (PathHunter β-Arrestin orphan GPCR panel)
Excerpt: as §1

GPR157 = biological target: T10, GPR157 (Homo sapiens, UniProt Q5UAW9)
T10 construct: purchased DiscoveRx (PathHunter β-Arrestin orphan GPCR panel)
Excerpt: as §1

GPR149 = biological target: T11, GPR149 (Homo sapiens, UniProt Q86SP6)
T11 construct: purchased DiscoveRx (PathHunter β-Arrestin orphan GPCR panel)
T11 sequence (Q86SP6 whole entry): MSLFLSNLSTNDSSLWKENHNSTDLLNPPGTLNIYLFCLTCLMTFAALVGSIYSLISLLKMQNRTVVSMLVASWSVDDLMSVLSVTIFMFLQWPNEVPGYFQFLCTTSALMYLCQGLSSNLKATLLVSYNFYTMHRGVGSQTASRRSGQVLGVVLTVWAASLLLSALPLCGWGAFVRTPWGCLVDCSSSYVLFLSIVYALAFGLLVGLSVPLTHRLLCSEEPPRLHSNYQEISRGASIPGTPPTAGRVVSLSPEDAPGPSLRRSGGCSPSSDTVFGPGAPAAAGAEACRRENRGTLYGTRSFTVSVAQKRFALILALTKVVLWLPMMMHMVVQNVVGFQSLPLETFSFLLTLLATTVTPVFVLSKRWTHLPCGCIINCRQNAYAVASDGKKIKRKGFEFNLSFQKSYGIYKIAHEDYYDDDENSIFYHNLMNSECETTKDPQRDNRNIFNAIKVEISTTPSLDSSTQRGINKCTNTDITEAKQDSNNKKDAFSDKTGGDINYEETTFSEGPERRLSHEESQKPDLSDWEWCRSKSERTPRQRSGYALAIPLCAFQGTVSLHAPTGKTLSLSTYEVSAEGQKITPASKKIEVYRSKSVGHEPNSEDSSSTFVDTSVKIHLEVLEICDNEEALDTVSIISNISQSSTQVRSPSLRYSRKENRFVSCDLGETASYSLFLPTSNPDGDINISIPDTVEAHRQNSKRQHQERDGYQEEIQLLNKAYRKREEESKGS
Excerpt: as §1

GPR37L1 = biological target: T12, GPR37L1 (Homo sapiens, UniProt O60883)
T12 construct: purchased DiscoveRx (PathHunter β-Arrestin orphan GPCR panel)
T12 sequence (O60883 26-481): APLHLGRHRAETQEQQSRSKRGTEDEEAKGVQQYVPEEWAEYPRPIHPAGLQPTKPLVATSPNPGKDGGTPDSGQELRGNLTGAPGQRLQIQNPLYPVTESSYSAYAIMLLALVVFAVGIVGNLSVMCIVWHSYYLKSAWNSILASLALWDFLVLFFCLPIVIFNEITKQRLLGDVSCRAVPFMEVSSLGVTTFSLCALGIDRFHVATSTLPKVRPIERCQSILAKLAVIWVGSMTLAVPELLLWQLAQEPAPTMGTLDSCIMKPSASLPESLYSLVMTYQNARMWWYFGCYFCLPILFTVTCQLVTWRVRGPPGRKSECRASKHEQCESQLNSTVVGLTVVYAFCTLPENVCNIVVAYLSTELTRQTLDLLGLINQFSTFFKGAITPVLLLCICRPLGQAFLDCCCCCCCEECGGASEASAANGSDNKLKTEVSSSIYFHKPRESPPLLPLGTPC
Excerpt: as §1

DARC = biological target: T13, DARC (Homo sapiens, UniProt Q16570)
T13 construct: purchased DiscoveRx (PathHunter β-Arrestin orphan GPCR panel)
Excerpt: as §1

GPR103 = biological target: T14, GPR103 (Homo sapiens, UniProt Q96P65)
T14 construct: purchased DiscoveRx (PathHunter β-Arrestin orphan GPCR panel)
Excerpt: as §1

GPR18 = biological target: T15, GPR18 (Homo sapiens, UniProt Q14330)
T15 construct: purchased DiscoveRx (PathHunter β-Arrestin orphan GPCR panel)
T15 sequence (Q14330 whole entry): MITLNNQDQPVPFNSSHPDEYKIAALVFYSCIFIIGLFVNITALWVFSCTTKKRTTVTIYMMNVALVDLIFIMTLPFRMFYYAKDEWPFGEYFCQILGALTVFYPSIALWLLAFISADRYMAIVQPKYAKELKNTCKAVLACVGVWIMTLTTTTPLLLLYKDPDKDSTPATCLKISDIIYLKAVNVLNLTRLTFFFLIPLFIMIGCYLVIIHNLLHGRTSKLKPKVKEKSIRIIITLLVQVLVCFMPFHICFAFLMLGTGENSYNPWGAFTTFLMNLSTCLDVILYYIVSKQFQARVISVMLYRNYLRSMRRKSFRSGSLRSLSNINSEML
Excerpt: as §1

GPR152 = biological target: T16, GPR152 (Homo sapiens, UniProt Q8TDT2)
T16 construct: purchased DiscoveRx (PathHunter β-Arrestin orphan GPCR panel)
Excerpt: as §1

GPR37 = biological target: T17, GPR37 (Homo sapiens, UniProt O15354)
T17 construct: purchased DiscoveRx (PathHunter β-Arrestin orphan GPCR panel)
Excerpt: as §1

GPR139 = biological target: T18, GPR139 (Homo sapiens, UniProt Q6DWJ6)
T18 construct: purchased DiscoveRx (PathHunter β-Arrestin orphan GPCR panel)
Excerpt: as §1

GPR151 = biological target: T19, GPR151 (Homo sapiens, UniProt Q8TDV0)
T19 construct: purchased DiscoveRx (PathHunter β-Arrestin orphan GPCR panel)
T19 sequence (Q8TDV0 whole entry): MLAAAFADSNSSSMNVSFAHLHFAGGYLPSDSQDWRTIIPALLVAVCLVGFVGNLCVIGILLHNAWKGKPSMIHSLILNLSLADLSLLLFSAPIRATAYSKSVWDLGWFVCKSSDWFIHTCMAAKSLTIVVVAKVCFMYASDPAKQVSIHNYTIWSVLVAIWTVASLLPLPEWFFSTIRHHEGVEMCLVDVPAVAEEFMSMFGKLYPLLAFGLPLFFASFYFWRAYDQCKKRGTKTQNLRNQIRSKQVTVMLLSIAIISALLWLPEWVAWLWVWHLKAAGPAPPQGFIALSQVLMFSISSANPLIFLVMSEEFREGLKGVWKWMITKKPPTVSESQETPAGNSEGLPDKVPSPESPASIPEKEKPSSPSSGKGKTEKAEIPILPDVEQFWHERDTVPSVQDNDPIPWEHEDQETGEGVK
Excerpt: as §1

GPR142 = biological target: T20, GPR142 (Homo sapiens, UniProt Q7Z601)
T20 construct: purchased DiscoveRx (PathHunter β-Arrestin orphan GPCR panel)
Excerpt: as §1

GPR32 = biological target: T21, GPR32 (Homo sapiens, UniProt O75388)
T21 construct: purchased DiscoveRx (PathHunter β-Arrestin orphan GPCR panel)
T21 sequence (O75388 whole entry): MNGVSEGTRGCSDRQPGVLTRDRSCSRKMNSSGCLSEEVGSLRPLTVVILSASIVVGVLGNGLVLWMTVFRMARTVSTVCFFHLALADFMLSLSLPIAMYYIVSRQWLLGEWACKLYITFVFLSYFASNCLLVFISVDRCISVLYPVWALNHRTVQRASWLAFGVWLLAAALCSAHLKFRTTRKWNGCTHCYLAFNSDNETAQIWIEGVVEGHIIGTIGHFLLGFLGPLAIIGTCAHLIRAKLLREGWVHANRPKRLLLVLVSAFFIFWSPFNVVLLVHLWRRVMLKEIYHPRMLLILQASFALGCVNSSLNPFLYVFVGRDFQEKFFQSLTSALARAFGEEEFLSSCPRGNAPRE
Excerpt: as §1

GPR15 = biological target: T22, GPR15 (Homo sapiens, UniProt P49685)
T22 construct: purchased DiscoveRx (PathHunter β-Arrestin orphan GPCR panel)
Excerpt: as §1

GPR31 = biological target: T23, GPR31 (Homo sapiens, UniProt O00270)
T23 construct: purchased DiscoveRx (PathHunter β-Arrestin orphan GPCR panel)
Excerpt: as §1

CCRL2 = biological target: T24, CCRL2 (Homo sapiens, UniProt O00421)
T24 construct: purchased DiscoveRx (PathHunter β-Arrestin orphan GPCR panel)
Excerpt: as §1

GPR150 = biological target: T25, GPR150 (Homo sapiens, UniProt Q8NGU9)
T25 construct: purchased DiscoveRx (PathHunter β-Arrestin orphan GPCR panel)
T25 sequence (Q8NGU9 whole entry): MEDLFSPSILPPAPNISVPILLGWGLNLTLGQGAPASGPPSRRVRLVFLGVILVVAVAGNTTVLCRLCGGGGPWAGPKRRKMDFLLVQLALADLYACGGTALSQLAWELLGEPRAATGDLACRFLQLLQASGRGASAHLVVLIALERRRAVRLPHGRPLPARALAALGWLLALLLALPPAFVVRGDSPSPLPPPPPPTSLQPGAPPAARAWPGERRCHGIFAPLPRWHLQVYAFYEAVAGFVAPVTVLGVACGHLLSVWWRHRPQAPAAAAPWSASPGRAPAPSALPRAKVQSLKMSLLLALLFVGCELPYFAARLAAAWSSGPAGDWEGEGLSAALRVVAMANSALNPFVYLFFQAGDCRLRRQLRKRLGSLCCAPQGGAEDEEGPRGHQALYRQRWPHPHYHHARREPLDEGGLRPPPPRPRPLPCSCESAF
Excerpt: as §1

GPR25 = biological target: T26, GPR25 (Homo sapiens, UniProt O00155)
T26 construct: purchased DiscoveRx (PathHunter β-Arrestin orphan GPCR panel)
Excerpt: as §1

EBI2 = biological target: T27, EBI2 (Homo sapiens, UniProt P32249)
T27 construct: purchased DiscoveRx (PathHunter β-Arrestin orphan GPCR panel)
Excerpt: as §1

GPR182 = biological target: T28, GPR182 (Homo sapiens, UniProt O15218)
T28 construct: purchased DiscoveRx (PathHunter β-Arrestin orphan GPCR panel)
T28 sequence (O15218 whole entry): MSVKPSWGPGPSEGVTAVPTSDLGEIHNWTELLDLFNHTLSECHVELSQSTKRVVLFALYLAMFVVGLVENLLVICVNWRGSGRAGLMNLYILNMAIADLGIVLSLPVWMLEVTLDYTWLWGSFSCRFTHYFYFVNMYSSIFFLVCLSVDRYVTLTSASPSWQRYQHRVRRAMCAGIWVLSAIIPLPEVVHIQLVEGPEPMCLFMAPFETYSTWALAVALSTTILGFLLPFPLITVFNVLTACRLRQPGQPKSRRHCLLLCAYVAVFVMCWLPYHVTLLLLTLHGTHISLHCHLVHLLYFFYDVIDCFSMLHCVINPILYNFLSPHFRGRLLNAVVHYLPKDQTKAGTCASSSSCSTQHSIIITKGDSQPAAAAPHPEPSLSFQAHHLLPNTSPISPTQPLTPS
Excerpt: as §1

GHSR1B = biological target: T29, GHSR1B (Homo sapiens, UniProt Q92847)
T29 construct: purchased DiscoveRx (PathHunter β-Arrestin orphan GPCR panel)
Excerpt: as §1

GPR176 = biological target: T30, GPR176 (Homo sapiens, UniProt Q14439)
T30 construct: purchased DiscoveRx (PathHunter β-Arrestin orphan GPCR panel)
Excerpt: as §1

ADMR = biological target: T31, ADMR (Homo sapiens, UniProt O15218)
T31 construct: purchased DiscoveRx (PathHunter β-Arrestin orphan GPCR panel)
T31 sequence (O15218 whole entry): as above
Excerpt: as §1

BAI3 = biological target: T32, BAI3 (Homo sapiens, UniProt O60242)
T32 construct: purchased DiscoveRx (PathHunter β-Arrestin orphan GPCR panel)
Excerpt: as §1

GPR171 = biological target: T33, GPR171 (Homo sapiens, UniProt O14626)
T33 construct: purchased DiscoveRx (PathHunter β-Arrestin orphan GPCR panel)
T33 sequence (O14626 whole entry): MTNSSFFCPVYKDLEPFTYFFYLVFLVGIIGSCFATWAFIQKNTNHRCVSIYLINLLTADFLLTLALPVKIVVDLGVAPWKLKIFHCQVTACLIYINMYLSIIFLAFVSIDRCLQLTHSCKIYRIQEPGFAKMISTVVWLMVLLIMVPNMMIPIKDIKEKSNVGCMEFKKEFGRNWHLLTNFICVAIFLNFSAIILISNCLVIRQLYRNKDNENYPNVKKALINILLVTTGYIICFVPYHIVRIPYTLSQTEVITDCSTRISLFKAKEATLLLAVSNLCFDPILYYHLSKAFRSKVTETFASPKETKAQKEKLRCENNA
Excerpt: as §1

GPR132 = biological target: T34, GPR132 (Homo sapiens, UniProt Q9UNW8)
T34 construct: purchased DiscoveRx (PathHunter β-Arrestin orphan GPCR panel)
Excerpt: as §1

GPR23 = biological target: T35, GPR23 (Homo sapiens, UniProt Q99677)
T35 construct: purchased DiscoveRx (PathHunter β-Arrestin orphan GPCR panel)
Excerpt: as §1

BAI1 = biological target: T36, BAI1 (Homo sapiens, UniProt O14514)
T36 construct: purchased DiscoveRx (PathHunter β-Arrestin orphan GPCR panel)
Excerpt: as §1

GPR162 = biological target: T37, GPR162 (Homo sapiens, UniProt Q16538)
T37 construct: purchased DiscoveRx (PathHunter β-Arrestin orphan GPCR panel)
Excerpt: as §1

GPR3 = biological target: T38, GPR3 (Homo sapiens, UniProt P46089)
T38 construct: purchased DiscoveRx (PathHunter β-Arrestin orphan GPCR panel)
Excerpt: as §1

GPR173 = biological target: T39, GPR173 (Homo sapiens, UniProt Q9NS66)
T39 construct: purchased DiscoveRx (PathHunter β-Arrestin orphan GPCR panel)
Excerpt: as §1

GPR20 = biological target: T40, GPR20 (Homo sapiens, UniProt Q99678)
T40 construct: purchased DiscoveRx (PathHunter β-Arrestin orphan GPCR panel)
Excerpt: as §1

GPR107 = biological target: T41, GPR107 (Homo sapiens, UniProt Q5VW38)
T41 construct: purchased DiscoveRx (PathHunter β-Arrestin orphan GPCR panel)
Excerpt: as §1

GPR17 = biological target: T42, GPR17 (Homo sapiens, UniProt Q13304)
T42 construct: purchased DiscoveRx (PathHunter β-Arrestin orphan GPCR panel)
Excerpt: as §1

GPR123 = biological target: T43, GPR123 (Homo sapiens, UniProt Q86SQ6)
T43 construct: purchased DiscoveRx (PathHunter β-Arrestin orphan GPCR panel)
Excerpt: as §1

GPR101 = biological target: T44, GPR101 (Homo sapiens, UniProt Q96P66)
T44 construct: purchased DiscoveRx (PathHunter β-Arrestin orphan GPCR panel)
Excerpt: as §1

GPR143 = biological target: T45, GPR143 (Homo sapiens, UniProt P51810)
T45 construct: purchased DiscoveRx (PathHunter β-Arrestin orphan GPCR panel)
T45 sequence (P51810 whole entry): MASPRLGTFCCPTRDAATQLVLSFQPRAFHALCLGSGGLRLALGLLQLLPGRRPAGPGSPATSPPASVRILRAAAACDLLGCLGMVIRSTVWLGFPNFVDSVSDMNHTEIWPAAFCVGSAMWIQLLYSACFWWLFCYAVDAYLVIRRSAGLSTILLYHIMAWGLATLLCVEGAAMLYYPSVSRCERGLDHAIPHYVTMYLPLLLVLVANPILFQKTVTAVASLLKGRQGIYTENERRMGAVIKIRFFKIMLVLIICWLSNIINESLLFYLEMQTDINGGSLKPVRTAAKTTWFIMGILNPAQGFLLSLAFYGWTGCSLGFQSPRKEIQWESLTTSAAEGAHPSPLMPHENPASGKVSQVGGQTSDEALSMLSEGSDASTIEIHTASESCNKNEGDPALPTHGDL
Excerpt: as §1

GPR12 = biological target: T46, GPR12 (Homo sapiens, UniProt P47775)
T46 construct: purchased DiscoveRx (PathHunter β-Arrestin orphan GPCR panel)
T46 sequence (P47775 whole entry): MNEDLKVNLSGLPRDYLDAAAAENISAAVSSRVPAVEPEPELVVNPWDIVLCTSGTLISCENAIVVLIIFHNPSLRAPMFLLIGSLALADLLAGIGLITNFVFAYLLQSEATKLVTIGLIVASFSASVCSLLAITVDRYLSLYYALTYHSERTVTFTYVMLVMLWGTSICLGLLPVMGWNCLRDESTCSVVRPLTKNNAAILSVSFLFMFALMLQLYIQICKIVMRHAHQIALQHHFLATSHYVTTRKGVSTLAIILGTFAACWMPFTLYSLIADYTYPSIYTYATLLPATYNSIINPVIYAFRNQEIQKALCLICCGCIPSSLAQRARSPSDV
Excerpt: as §1

GPR135 = biological target: T47, GPR135 (Homo sapiens, UniProt Q8IZ08)
T47 construct: purchased DiscoveRx (PathHunter β-Arrestin orphan GPCR panel)
Excerpt: as §1

For `CCCCC[C@H](O)/C=C/[C@H]1[C@H](O)CC(=O)[C@@H]1C/C=C\CCCC(=O)NC(CO)CO` [PGE2-SA], the “Mean RLU” value (GPR27) was 219760 RLU, the “Mean RLU” value (BAI2) was 15400 RLU and the “Mean RLU” value (GPR141) was 30420 RLU. The “Mean RLU” value (GPR30) was 8540 RLU, the “Mean RLU” value (CMKLR2) was 17240 RLU and the “Mean RLU” value (GPR148) was 3640 RLU. For the same compound, the “Mean RLU” value (GPR146) was 15800 RLU, the “Mean RLU” value (GPR26) was 2200 RLU and the “Mean RLU” value (GPR161) was 20300 RLU. For the same compound, the “Mean RLU” value (GPR157) was 356620 RLU, the “Mean RLU” value (GPR149) was 29340 RLU and the “Mean RLU” value (GPR37L1) was 36440 RLU. For the same compound, the “Mean RLU” value (DARC) was 105120 RLU, the “Mean RLU” value (GPR103) was 56020 RLU and the “Mean RLU” value (GPR18) was 520 RLU. For the same compound, the “Mean RLU” value (GPR152) was 178980 RLU, the “Mean RLU” value (GPR37) was 822100 RLU and the “Mean RLU” value (GPR139) was 307380 RLU. For the same compound, the “Mean RLU” value (GPR151) was 57420 RLU, the “Mean RLU” value (GPR142) was 2660 RLU and the “Mean RLU” value (GPR32) was 129240 RLU. For the same compound, the “Mean RLU” value (GPR15) was 9440 RLU, the “Mean RLU” value (GPR31) was 7680 RLU and the “Mean RLU” value (CCRL2) was 8400 RLU. The “Mean RLU” value (GPR150) was 31360 RLU, the “Mean RLU” value (GPR25) was 6140 RLU and the “Mean RLU” value (EBI2) was 46540 RLU. The “Mean RLU” value (GPR182) was 899260 RLU, the “Mean RLU” value (GHSR1B) was 2580 RLU and the “Mean RLU” value (GPR176) was 380580 RLU. For the same compound, the “Mean RLU” value (ADMR) was 514420 RLU, the “Mean RLU” value (BAI3) was 21960 RLU and the “Mean RLU” value (GPR171) was 4880 RLU. For the same compound, the “Mean RLU” value (GPR132) was 620480 RLU, the “Mean RLU” value (GPR23) was 990600 RLU and the “Mean RLU” value (BAI1) was 864280 RLU. The “Mean RLU” value (GPR162) was 26360 RLU, the “Mean RLU” value (GPR3) was 1524920 RLU and the “Mean RLU” value (GPR173) was 62220 RLU. For the same compound, the “Mean RLU” value (GPR20) was 74500 RLU, the “Mean RLU” value (GPR107) was 304860 RLU and the “Mean RLU” value (GPR17) was 805440 RLU. For the same compound, the “Mean RLU” value (GPR123) was 1221720 RLU, the “Mean RLU” value (GPR101) was 30940 RLU and the “Mean RLU” value (GPR143) was 91680 RLU. The “Mean RLU” value (GPR12) was 680 RLU and the “Mean RLU” value (GPR135) was 16680 RLU.
